# Laboratory results taken from patent publication US5691334A, “Pyrrolydenemethyl-derivatives and process for their preparation” (Pharmacia & Upjohn S.p.A., priority 1993, dated 1997).
# Structures can show the parent of a compound that is named as a salt. Where two headings read alike, the source gives them in different places.
# Columns and labels:
# [1] = tested on: tumor cell lines (human erythroleukemia K562, murine melanoma B16); assay: Tumor cell growth (test 3: proliferation of human erythroleukemia K562, murine melanoma B16; MTT); type: cell-based; details: read-out: IC50 tumor cell growth (upper and lower limits)
# Description: Proliferation of tumor cell lines (human erythroleukemia K562, murine melanoma B16).
# Test 3 allows to investigate the inhibitory effect of the present compounds on a generic proliferation pathway, independent from immune-specific growth factors.
# Tumor cells were collected in the logarithmic phase of growth and seeded in triplicate in flat bottomed microculture plates at the concentration of 1×10^4 in the presence or absence of different concentrations of the test compound. After 48 h incubation at 37° C. in 5% CO2, the cell viability was evaluated by the MTT colorimetric method according to Ferrari et al., J. Immunol.
# The concentration inhibiting 50% (IC50) of the cell proliferation in the different settings is calculated for the test compounds and the reference standard UP.
# [2] = tested on: murine splenocytes; assay: Lymphocyte proliferation (tests 1 and 2: murine splenocytes induced by ConA / by irradiated allogenic spleen cells, MLR); type: cell-based; details: for IC50: Mus musculus, Splenocyte, read-out: IC50 lymphocyte proliferation (upper and lower limits); for TI (therapeutic index): ratio of mean IC50 on tumor cells growth (test 3) to IC50 on lymphocytes proliferation (tests 1 and 2)
# Description: Proliferation of murine splenocytes induced by the mitogen Concanavaline A.
# Proliferation of murine splenocytes induced by irradiated allogenic murine spleen cells (MLR).
# Tests 1 and 2 allow the study of the compounds on proliferation models mediated by T-cell growth factors (e.g. IL-2) and are considered immunologically specific.
# Spleens were aseptically removed from C57B1/6 mice and a cell suspension prepared in complete medium. Cell viability was evaluated by trypan blue exclusion.
# Spleen cells (4×10^5) were cultured in triplicate in a volume of 0.15 ml, in flat bottomed microculture plates, in the absence or presence of an optimal concentration of ConA (1.7 microgr/ml) and of different concentrations of the test compound. Cultures were incubated for 72 h at 37° C. in a humidified, 5% CO2 incubator; 18 h before termination of the cultures, 0.2 microCi of [methyl-^3 H]thymidine were added to each well. Cells were harvested on glass fiber filters and the [^3 H]TdR uptake (cpm) quantified in a liquid scintillation counter.
# Spleens were aseptically removed from C57B1/6 mice (responders) and Balb/c mice (stimulators), and cell suspensions prepared in complete medium. Responder cells (1×10^6) were cocultured in triplicate with irradiated (1500R) stimulator cells (5×10^5) in a volume of 0.15 ml in the presence or absence of different concentrations of the test compound, in flat bottomed microculture plates. Cultures were incubated for 96 h at 37° C. in a humidified, 5% CO2 incubator; the last 18 h in the presence of 0.2 microCi of ^3 H-TdR.
# Cells were harvested on glass fiber filter and the ^3 H-TdR uptake (cpm) quantified in a liquid scintillation counter.
# The concentration inhibiting 50% (IC50) of the cell proliferation in the different settings is calculated for the test compounds and the reference standard UP. The ratio between the mean IC50 values on tumor cells growth (test 3) and the IC50 on lymphocytes proliferation (measured by test 1 and 2) produces the therapeutic index (TI) of the compounds.
# [3] = test 3, mean IC50 on tumor cells (K562, B16), 48 h, MTT, limits in parentheses
# [4] = tests 1 and 2, [3H]thymidine uptake, ConA 72 h, MLR 96 h, limits in parentheses
"IC50 [1, 3]",SMILES,"IC50 ([1]; K562, 48 h)",IC50 [2],TI (therapeutic index) [2],"IC50 [2, 4]"
,"CCCCCCCCCCCC1=NC(=Cc2[nH]c(-c3ccc[nH]3)cc2OCc2ccccc2)C=C1.Cl [FCE 29002, 4-benzyloxy-5-[(5-undecyl-2H-pyrrol-2-ylidene)methyl]-2,2'-bi-1H-pyrrole, hydrochloride]",5.8 µg/mL,0.0301 µg/mL,193,
,"CCCCCCCCCCCC1=NC(=Cc2[nH]c(-c3ccc[nH]3)cc2OCC)C=C1.Cl [FCE 28512, 4-ethoxy-5-[(5-undecyl-2H-pyrrol-2-ylidene)methyl]-2,2'-bi-1H-pyrrole, hydrochloride]",0.511 µg/mL,0.0023 µg/mL,222,
0.584 µg/mL,"CCCCCCCCCCCCCC1=NC(=Cc2[nH]c(-c3ccc[nH]3)cc2OC)C=C1.Cl [FCE 28526, 4-methoxy-5-[(5-tridecyl-2H-pyrrol-2-ylidene)methyl]-2,2'-bi-1H-pyrrole, hydrochloride]",,,290,0.002 µg/mL
0.784 µg/mL,"CCCCCCCCCCCC1=NC(=Cc2[nH]c(-c3ccc[nH]3)cc2OCCCC)C=C1 [FCE 28789, 4-buthoxy-5-[(5-undecyl-2H-pyrrol-2-ylidene)methyl]-2,2'-bi-1H-pyrrole, hydrochloride]",,,66,0.0119 µg/mL
,"CCCCCCCCCCCC1=NC(=Cc2[nH]c(-c3ccc[nH]3)cc2OC)C=C1.Cl [UP, 4-methoxy-5-[(5-undecyl-2H-pyrrol-2-ylidene)methyl]-2,2'-bi-1H-pyrrole, hydrochloride, reference compound]",0.106 µg/mL,0.0029 µg/mL,36,
,"CCCCCCCCCCCCCC1=NC(=Cc2[nH]c(-c3ccc[nH]3)cc2OCC)C=C1.Cl [FCE 28733, 4-ethoxy-5-[(5-tridecyl-2H-pyrrol-2-ylidene)methyl]-2,2'-bi-1H-pyrrole, hydrochloride]",0.859 µg/mL,0.0051 µg/mL,168,
